For orientation: inhibition means the change of the read-out against control, counted positive when it falls. In general, Ki refers to a dissociation constant, usually derived from enzyme kinetics or from competition with a known ligand. The low end stands for tighter binding, the high end for weaker binding. Broadly, the IC50 is the concentration at which inhibition is half-maximal. The clearance is the rate of elimination divided by the concentration. For orientation: bioavailability means dose-corrected exposure relative to a reference, in per cent. A higher bioavailability goes with good availability.

Series [1] can be described thus: Antiplatelet activity in human platelet rich plasma assessed as inhibition of ADP-induced platelet aggregation at 10 uM relative to control. The class given is functional.
For the next series, the target named is P2Y purinoceptor 1 (Homo sapiens, UniProt P47900). As to the kind of experiment: Displacement of [beta-33P]-2MeS-ADP from human P2Y1 receptor expressed in HEK293 cells after 1 hr by scintillation counting analysis. The class given is cell-based.
Series [2] in a line: Antiplatelet activity in human platelet rich plasma assessed as inhibition of ADP-induced platelet aggregation. The class given is functional.
Series [3] is described as follows: Protein binding in human serum. The class given is ADME, cell-free. Particulars: read-out: PB.
Series [4] in a line: Clearance in rat at 5 mg/kg, iv. The class given is ADME, organism-based. More on the design: dose 5 mg/kg, route intravenous. Particulars: in vivo.
Series [5] is described as follows: Oral bioavailability in rat. The conditions noted are these: in vivo. The class given is ADME, organism-based.

P2Y purinoceptor 1, sequence (P47900 whole entry): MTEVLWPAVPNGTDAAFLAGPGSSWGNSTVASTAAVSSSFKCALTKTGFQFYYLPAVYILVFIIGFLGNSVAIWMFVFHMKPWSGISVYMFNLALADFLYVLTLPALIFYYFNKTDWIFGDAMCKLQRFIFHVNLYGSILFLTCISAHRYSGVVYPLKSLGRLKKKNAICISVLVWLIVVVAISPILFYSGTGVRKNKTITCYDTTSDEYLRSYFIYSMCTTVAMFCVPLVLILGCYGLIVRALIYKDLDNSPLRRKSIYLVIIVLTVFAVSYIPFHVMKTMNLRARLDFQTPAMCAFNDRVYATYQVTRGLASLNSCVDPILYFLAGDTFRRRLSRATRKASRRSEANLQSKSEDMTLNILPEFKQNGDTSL

In the case of `CC(C)(C)c1ccccc1Oc1ncccc1Nc1ncc(-c2ccccc2)s1`, the inhibition at 10 µM in series [1] came to 87%.
For the compound `CCc1nc(Nc2cccnc2Oc2ccccc2C(C)(C)C)sc1-c1ccccc1`, the inhibition at 10 µM in series [1] is 78%. The same compound registered a Ki on P2Y purinoceptor 1 of 12 nM.
Take `CC(C)(C)c1ccccc1Oc1ncccc1Nc1nc(C(C)(C)C)c(-c2ccccc2)s1`: the inhibition at 10 µM in series [1] came out at 86%. Besides, the Ki on P2Y purinoceptor 1 was determined as 31 nM.
With `CC(C)(C)c1ccccc1Oc1ncccc1Nc1nc(C(F)(F)F)c(-c2ccccc2)s1`, the inhibition at 10 µM in series [1] was determined as 61%. Moreover, the IC50 in series [2] was found to be 12000 nM. On P2Y purinoceptor 1, this compound had a Ki of 7 nM.
`CC(C)(C)c1ccccc1Oc1ncccc1Nc1nc(C(C)(C)CC(=O)O)c(-c2ccccc2)s1`: the inhibition at 10 µM in series [1] turned out to be 89%. Further, the affinity on P2Y purinoceptor 1, expressed as Ki, was 207 nM.
Taken in the same sequence, the figures for `CN(C)C(=O)c1nc(Nc2cccnc2Oc2ccccc2C(C)(C)C)sc1-c1ccccc1` were 100% and 186 nM.
On to `Cc1sc(Nc2cccnc2Oc2ccccc2C(C)(C)C)nc1C(F)(F)F`, for which, in series [1], the inhibition at 10 µM amounted to 96%. On P2Y purinoceptor 1, this compound gave a Ki of 11 nM.
In the case of `CCOC(=O)c1sc(Nc2cccnc2Oc2ccccc2C(C)(C)C)nc1C(F)(F)F`, the inhibition at 10 µM in series [1] is 50%. For the same compound, the affinity on P2Y purinoceptor 1, expressed as Ki, was 5 nM.
For the compound `CC(C)(C)c1ccccc1Oc1ncccc1Nc1nc(C(F)(F)F)c(C#N)s1`, the inhibition at 10 µM in series [1] came to 101%. Further, the affinity on P2Y purinoceptor 1 corresponds to a Ki of 21 nM.
With `Cc1noc(-c2sc(Nc3cccnc3Oc3ccccc3C(C)(C)C)nc2C(F)(F)F)n1`, the inhibition at 10 µM in series [1] is 56%. This compound showed a Ki at P2Y purinoceptor 1 of 6 nM.
In turn, `CC(C)(C)c1ccccc1Oc1ncccc1Nc1nc(C(F)(F)F)c(C(N)=O)s1` returned a Ki at P2Y purinoceptor 1 of 4850 nM.
`Cc1ccccc1-c1sc(Nc2cccnc2Oc2ccccc2C(C)(C)C)nc1C(F)(F)F`: the inhibition at 10 µM in series [1] worked out at 54%. The compound also had an inhibitory constant (Ki) on P2Y purinoceptor 1 of 11 nM.
In the case of `Cc1ccc(-c2sc(Nc3cccnc3Oc3ccccc3C(C)(C)C)nc2C(F)(F)F)cc1`, the inhibition at 10 µM in series [1] came out at 32%. Moreover, affinity at P2Y purinoceptor 1 was put at a Ki of 8 nM.
Regarding `CC(C)(C)c1ccccc1Oc1ncccc1Nc1nc(C(F)(F)F)c(-c2ccccc2F)s1`, the inhibition at 10 µM in series [1] worked out at 41%. At P2Y purinoceptor 1, this compound registered a Ki of 7 nM.
As to `COc1cccc(-c2sc(Nc3cccnc3Oc3ccccc3C(C)(C)C)nc2C(F)(F)F)c1`, the inhibition at 10 µM in series [1] worked out at 41%. The Ki at P2Y purinoceptor 1 came to 8 nM.
Taken in the same sequence, the figures for `COc1ccc(-c2sc(Nc3cccnc3Oc3ccccc3C(C)(C)C)nc2C(F)(F)F)cc1` were 30% and 8 nM.
As for `CC(C)(C)c1ccccc1Oc1ncccc1Nc1nc(C(F)(F)F)c(-c2ccc(OC(F)(F)F)cc2)s1`, the inhibition at 10 µM in series [1] worked out at 85%. Besides, the Ki on P2Y purinoceptor 1 amounted to 12 nM.
Taken in the same sequence, the figures for `CC(C)(C)c1ccccc1Oc1ncccc1Nc1nc(C(F)(F)F)c(-c2ccc(C#N)cc2)s1` were 79% and 13 nM.
Consider `CC(C)(C)c1ccccc1Oc1ncccc1Nc1nc(C(F)(F)F)c(-c2ccccc2O)s1`, for which the inhibition at 10 µM in series [1] came to 99%. The Ki at P2Y purinoceptor 1 came to 435 nM.
Turning to `CC(C)(C)c1ccccc1Oc1ncccc1Nc1nc(C(F)(F)F)c(-c2cccc(O)c2)s1`, the inhibition at 10 µM in series [1] amounted to 98%. The inhibition constant (Ki) at P2Y purinoceptor 1 worked out at 195 nM.
For `CN(C)CC(C)(C)COc1cccc(-c2sc(Nc3cccnc3Oc3ccccc3C(C)(C)C)nc2C(F)(F)F)c1`, the fraction unbound in series [3] was found to be 0.001. In series [4], this compound returned a clearance of 6.7 mL/min/kg. Further, the inhibition at 10 µM in series [1] was 17%. For the same compound, the IC50 in series [2] came out at 5200 nM. This compound returned a Ki on P2Y purinoceptor 1 of 12 nM. The bioavailability in series [5] is 27%.

Source of the values: ChEMBL document CHEMBL2401677, “2-Aminothiazole based P2Y(1) antagonists as novel antiplatelet agents” (Bioorg Med Chem Lett, 2013).
